According to paper PMC4533939, “Targeting lysyl oxidase for molecular imaging in breast cancer” (Breast Cancer Research : BCR, 2015):
Where two headings read alike, the source gives them in different places. One block for each compound: values may come before it.

Tests used:
EMT-6 tumors = format: in vivo, BALB/c mice
Protocol: Murine EMT-6 cells (5 × 10^6 cells in 100 μl of PBS) were injected into the upper left flank of female BALB/c mice (20–24 g; Charles River, Saint-Constant, QC, Canada). The EMT-6 tumor-bearing mice were imaged and used for ex vivo biodistribution experiments after allowing 7–10 days for the tumors to reach sizes of about 600 mm^3.
(§1) PET experiments were performed with [^18F]FB-GGGDPKGGGGG-NH2 injected into EMT-6 tumor-bearing BALB/c mice or into NIH-III mice bearing subcutaneous MCF-7 or MDA-MB-231 tumors, and tracer uptake was analyzed in vivo. For radiotracer injection, a catheter was placed into the tail vein of the mouse. While under anesthesia, mice were placed in the prone position with the medial axis parallel to the axial axis of the scanner and the thorax, abdomen and hind legs placed into the center of the field of view of the microPET R4 or Inveon PET/computed tomography (CT) scanner (Siemens Preclinical Solutions, Knoxville, TN, USA). A transmission scan for attenuation correction was not acquired. [^18F]FB-GGGDPKGGGGG-NH2 (4–5 MBq) in 100–150 μl of saline was injected intravenously through the catheter into the tail vein. The effects of BAPN were analyzed after intraperitoneal injection of 2 mg (100 mg/kg) of the inhibitor 4 h and 24 h before radiotracer injection. For the different experimental protocols, either an emission scan 60 min postinjection (dynamic experiments) was performed immediately or a 20 min postinjection PET scan acquisition (static scan followed by CT scan) was performed. Depending on the experimental setup, data acquisition continued for either 60 min or 20 min in three-dimensional list mode. The dynamic list mode data were sorted into sinograms with 53 time frames (10×2 s, 8×5 s, 6×10 s, 6×20 s, 8×60 s, 10×120 s and 5×300 s). The frames were reconstructed using ordered subset expectation maximization or maximum a posteriori reconstruction modes.
(§2) The pixel size was 0.085×0.085×0.12 cm, and the resolution in the center field of view was 1.8 mm. Correction for partial volume effects was not performed. The image files were further processed using the ROVER v2.0.51 software (ABX, Radeberg, Germany). Masks defining three-dimensional regions of interest (ROIs) were set, and the ROIs were defined by 50 % thresholding. Mean standardized uptake values (SUVmean = [activity/ml tissue]/[injected activity/body weight], mL/kg] were calculated for each ROI. Time–activity curves (TACs) were generated for the dynamic scans only. All semiquantified PET data are presented as mean ± SEM.

LOX = settings: peptidyl lysine oxidation by LOX; cited from earlier work
Description: An alternative approach for specific targeting of LOX involves the use of oligopeptides. Nagan and Kagan have investigated collagen-like structures to explore peptide sequences derived from the lysine-containing N- and C-terminal telopeptides of collagen concerning their enzymatic conversion by LOX. […] It was concluded that the aspartic acid located two positions ...

MCF-7 tumors = format: in vivo, NIH-III nu/nu mice
Protocol: Human MCF-7 cells, which form xenografts in female athymic mice, were injected subcutaneously (2–5×10^6 cells in 100 μl of PBS) into 8–10-week-old female NIH-III nu/nu mice (Charles River, Wilmington, MA, USA). Before injection of the cells, all mice received a 0.72-mg pellet containing 17β-estradiol in a 60-day release preparation (Innovative Research of America, Sarasota, FL, USA).
(§3) The pellet was implanted subcutaneously into the upper right flank to provide a constant level of 17β-estradiol needed by the estrogen receptor (ER)-positive MCF-7 cells. Tumors were imaged 20–30 days after injection, with the tumors reaching sizes ranging from 200 to 400 mm^3. Human MDA-MB-231 cells (1×10^6 cells in 100 μl of PBS) were also injected subcutaneously into 8–10-week-old female NIH-III nu/nu mice. After 7–9 days, they reached a size of approximately 500 mm^3 and were suitable for the PET experiments.
PET experiments were performed with [^18F]FB-GGGDPKGGGGG-NH2 injected into EMT-6 tumor-bearing BALB/c mice or into NIH-III mice bearing subcutaneous MCF-7 or MDA-MB-231 tumors, and tracer uptake was analyzed in vivo. For radiotracer injection, a catheter was placed into the tail vein of the mouse. While under anesthesia, mice were placed in the prone position with the medial axis parallel to the axial axis of the scanner and the thorax, abdomen and hind legs placed into the center of the field of view of the microPET R4 or Inveon PET/computed tomography (CT) scanner (Siemens Preclinical Solutions, Knoxville, TN, USA). A transmission scan for attenuation correction was not acquired. […] The effects of BAPN were analyzed after intraperitoneal injection of 2 mg (100 mg/kg) of the inhibitor 4 h and 24 h before radiotracer injection. […]
(§4) The pixel size was 0.085×0.085×0.12 cm, and the resolution in the center field of view was 1.8 mm. […] Mean standardized uptake values (SUVmean = [activity/ml tissue]/[injected activity/body weight], mL/kg] were calculated for each ROI. Time–activity curves (TACs) were generated for the dynamic scans only. All semiquantified PET data are presented as mean ± SEM.

[1] = parameters: species or system BALB/c mice; settings: mouse, in vivo
Protocol: (§5) Normal BALB/c mice received injections of approximately 25 MBq of [^18F]FB-GGGDPKGGGG. Venous blood samples were taken at 5, 15, 30 and 60 min postinjection and processed for determination of metabolic stability in vivo. Blood cells were separated by centrifugation (13,000 rpm for 5 min). Proteins in the supernatant were precipitated by addition of 2 volume parts of methanol followed by a second centrifugation step (13,000 rpm for 5 min). Radioactivity in blood components (cells, proteins and plasma) was measured using a Wallac Wizard 1480 3 automatic gamma counter. The clear plasma supernatant was examined using a Shimadzu HPLC system (Shimadzu Scientific Instruments, Columbia, MD, USA) equipped with a DGU-20A5 degasser, a SIL-20AHT autosampler, a LC-20AT pump, a SPD-M20A photo diode array detector and a RAMONA* radiodetector (Raytest Isotopenmessgeraete, Straubenhardt, Germany). The samples were analyzed using a Phenomenex Luna 10-μm C18(2) 100 Å, 250×4.6-mm column and the following gradients with water/0.2 % TFA as solvent A and acetonitrile as solvent B: 0–3 min 10 % B, 10 min 30 % B, 17 min 50 % B, 23 min 70 % B and 27–30 min 90 % B. The flow was constant at 1 ml/min, and the ultraviolet signals were measured at 210 nm and 254 nm.

[2] = system: breast cancer tumor models; format: in vivo, mice; settings: for tumor-to-blood ratio / tumor-to-muscle ratio: tumor model not stated
Protocol: as §1, §2

MDA-MB-231 tumors = format: in vivo, NIH-III nu/nu mice
Protocol: as §3
as §1, with “Depending on the experimental setup, data acquisition continued for either 60 min or 20 min in three-dimensional list mode. The dynamic list mode data were sorted into sinograms with 53 time frames (10×2 s, 8×5 s, 6×10 s, 6×20 s, 8×60 s, 10×120 s and 5×300 s). The frames were reconstructed using ordered subset expectation maximization or maximum a posteriori reconstruction modes.” left out
as §4

[3] = Radio-HPLC of plasma samples and quality control (retention time); format: physicochemical; settings: Luna C18(2) 250×4.6 mm, water/0.2 % TFA - acetonitrile gradient, 1 ml/min; two more lipophilic radiometabolites eluted at 13.2 and 14.3 min
Protocol: as §5

Compound: N#CCCN [BAPN, β-aminopropionitrile, reference compound]
reduction of maximum tumor uptake of the radiotracer (SUV5min) (EMT-6 tumors; EMT-6 tumor, 100 mg/kg BAPN (about 2 mg per mouse) i.p. 4 h before [18F]FB-GGGDPKGGGGG-NH2): approximately 33%
effect on radiotracer tumor uptake at 60 min postinjection (EMT-6 tumors; EMT-6 tumor, BAPN predosing 4 h or 24 h): no effect
effect on radioactivity in muscle tissue (EMT-6 tumors; muscle of EMT-6 tumor-bearing mice, BAPN predosing): unaltered

Compound: Ac-GGGDPKGGGGG-NH2 [oligopeptide substrate with favorable kinetic properties for LOX-mediated peptidyl lysine oxidation (Nagan and Kagan)]
Michaelis constant (Km) among several collagen N-telopeptide derivatives (LOX): lowest
kcat/Km among several collagen N-telopeptide derivatives (LOX): highest

SUV60min, muscle tissue (MCF-7 tumors; mouse, in vivo): 0.05±0.008
share of injected radiotracer found in the plasma compartment [1]: > 60%
time to maximum SUV in tumor ([2]; mouse, in vivo): 3 to 5 min
SUV60min, muscle tissue (MDA-MB-231 tumors; mouse, in vivo): 0.04±0.004
SUV60min, muscle tissue (EMT-6 tumors; mouse, in vivo): 0.03±0.004
HPLC retention time [3]: 12.2 min
Compound: [^18F]FB-GGGDPKGGGGG-NH2 [[^18F]fluorobenzoate-GGGDPKGGGGG-NH2, 18F-labeled LOX-targeting oligopeptide PET radiotracer]
SUV5min, tumor (MCF-7 tumors; MCF-7 tumor, 4-5 MBq i.v., 5 min postinjection, mean ± SEM, n = 6): 0.59±0.03
SUV60min, tumor (MCF-7 tumors; MCF-7 tumor, 60 min postinjection, mean ± SEM, n = 6): 0.12±0.02
tumor-to-blood ratio ([2]; 5 min postinjection): 0.3
tumor-to-muscle ratio ([2]; 5 min postinjection): 2.7
tumor-to-blood ratio ([2]; 60 min postinjection): 2.3
tumor-to-muscle ratio ([2]; 60 min postinjection): 1
SUV5min, tumor (MDA-MB-231 tumors; MDA-MB-231 tumor, 4-5 MBq i.v., 5 min postinjection, mean ± SEM, n = 5): 0.50±0.09
SUV60min, tumor (MDA-MB-231 tumors; MDA-MB-231 tumor, 60 min postinjection, mean ± SEM, n = 5): 0.12±0.02
SUV5min, tumor (EMT-6 tumors; EMT-6 tumor, 4-5 MBq i.v., 5 min postinjection, mean ± SEM, n = 4): 0.63±0.08
SUV60min, tumor, in the absence and presence of BAPN (EMT-6 tumors; EMT-6 tumor, 60 min postinjection, control and BAPN-predosed groups): 0.19–0.21
SUV60min, tumor (EMT-6 tumors; EMT-6 tumor, 60 min postinjection, mean ± SEM, n = 4): 0.19±0.02
SUV5min, tumor, in the presence of BAPN (EMT-6 tumors; EMT-6 tumor, BAPN i.p. 24 h before radiotracer, mean ± SEM, n = 7, p > 0.05): 0.52±0.05
